Legend:
AQP1 [1] = molecular target: T1, AQP1 (Homo sapiens, UniProt P29972); experiment: Stopped-flow osmotic water permeability of AQP1 proteoliposomes; assay type: biochemical
T1 construct: Human erythrocytes were obtained from blood-bank units stored up to 5 weeks; from tissue; host or cells: human erythrocytes (blood-bank units; small-scale preparations from freshly drawn whole blood)
T1 sequence (P29972 2-269 limits assumed): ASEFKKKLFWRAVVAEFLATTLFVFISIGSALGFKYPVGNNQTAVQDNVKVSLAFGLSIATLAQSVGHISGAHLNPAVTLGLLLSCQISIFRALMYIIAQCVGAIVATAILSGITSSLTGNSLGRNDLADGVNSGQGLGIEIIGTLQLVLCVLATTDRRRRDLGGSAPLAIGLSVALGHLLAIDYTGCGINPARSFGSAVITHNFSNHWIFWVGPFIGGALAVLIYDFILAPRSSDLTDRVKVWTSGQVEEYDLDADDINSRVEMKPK
Source text: Preparation AQP1-containing proteoliposomes. Crude Escherichia coli lipid was obtained from Avanti Polar Lipids, Inc., and neutral lipid was removed by acetone/ether wash (Ambudkar & Maloney, 1986, Methods. Enzymol. 125:558-563). The purified E. coli bulk phospholipid is composed of phosphalidylethanolamine (70%), phosphatidylglycerol (15%), and cardiolipin (15%) (Chen & Wilson, […], Proc. Natl. Acad. Sci. USA 83:2652-2656). E. coli bulk phospholipid was employed since it has previously been used for functional reconstitution of several transport proteins including the glucose transporter of RBCs (Maloney & Ambudkar, 1989, Arch. Biochem. Biophys. 269:1-10; Chen et al., 1986, Proc. Natl. Acad. Sci. USA 83:2652-2656).
Highly purified AQP1 protein was incorporated into proteoliposomes by detergent dilution; control liposomes were formed in an identical manner without AQP1 protein.
Purified AQP1 was stored overnight at 0° C. or frozen for several days at -80° C. prior to reconstitution. Reconstitution into proteoliposomes was carried out in a final volume of 1 ml containing 60-90 μg of purified AQP1 protein in chromatography buffer, 9 mg of bath-sonicated E. coli phospholipid, 1.25% (w/v) octyl glucoside, and 50 mM Tris-HCl (pH 7.5). The mixture was briefly blended on a vortex mixer and incubated for 20 minutes on ice. Proteoliposomes (or liposomes prepared without protein) were formed at room temperature by rapidly injecting the mixture into 25 ml of buffer A [50 mM MOPS, pH 7.5, 150 mM N-methyl-D-glucamine (NMDG) chloride also containing 10-15 mM carboxyfluorescein, 1 mM dithiothreitol, and 0.5 mM PMSF]. For the measurement of proton permeability, proteoliposomes and liposomes were loaded with buffer B (5 mM MOPS, pH 7.5, 150 mM KCl, 0.5 mM carboxyfluorescein, 1 mM dithiothreitol, and 0.5 mM PMSF). The suspension was incubated for 20 minutes at room temperature. Proteoliposomes or liposomes were collected by centrifugation for 1 hour at 123000×g in a Beckman Type 42.1 rotor at 4° C. The pellet was resuspended in 8 ml of buffer A or B and then centrifuged for 1 hour at 152000×g in a Beckman Type 50 Ti rotor. Proteoliposomes or liposomes were resuspended in 300 μl of buffer A or B and stored at 4° C. for 16-24 hours. Typically 50% (54±6%, n=5) of the AQP1 protein and 70% of the phospholipid were recovered in proteoliposomes. The lipid to protein ratio was in the range of 120:1 to 219:1. […] Protein and phospholipid were measured as described by Ambudkar & Maloney (J. Biol. Chem., 1986, 261:10079-10086).
Permeability measurements. Membrane permeability measurements (Pf) were measured by exposing AQP1 proteoliposomes or control liposomes to an osmotic gradient by rapid mixing with an equal volume of another solution containing buffer A plus sufficient sucrose to increase osmolality in the mixed solutions to a value 120% of that in the original solution. This was performed with a stopped-flow fluorometer (SF.17MV, Applied Photophysics, Leatherhead, U.K.) with a measured dead time of 0.7 ms. […] Extravesicular carboxyfluorescein fluorescence was completely quenched using anti-fluorescein antibody (Harris et al., 1990, Am. J. Physiol. 259:F366-F371). Within the range of osmolalities used in these experiments, the vesicles acted as perfect osmometers, and relative volume (absolute volume divided by initial volume) was linearly related to relative fluorescence (absolute fluorescence divided by initial fluorescence). […]

AQP1 [2] = molecular target: T2, AQP1 (Homo sapiens, UniProt P29972); experiment: Xenopus oocyte swelling assay, AQP1 cRNA-injected oocytes (Example 11); assay type: cell-based; parameters: expressed in transfected cells; host or cells: Xenopus oocytes injected with AQP1 cRNA
T2 sequence (P29972 1-269): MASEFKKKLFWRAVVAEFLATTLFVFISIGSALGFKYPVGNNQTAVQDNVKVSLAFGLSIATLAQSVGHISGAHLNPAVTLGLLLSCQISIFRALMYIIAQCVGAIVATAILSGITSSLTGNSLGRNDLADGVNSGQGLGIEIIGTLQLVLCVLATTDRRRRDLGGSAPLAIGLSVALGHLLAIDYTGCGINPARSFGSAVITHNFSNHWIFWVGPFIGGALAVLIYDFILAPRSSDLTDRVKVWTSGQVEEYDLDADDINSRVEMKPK

Structure (SMILES) | reversal of inhibition by mercurial reagents (AQP1 [1]; 5 mM β-mercaptoethanol after pCMBS or HgCl2) | restoration of Pf of AQP1-expressing oocytes after HgCl2 (AQP1 [2]; 5 mM β-mercaptoethanol 30 min after 1 mM HgCl2) | Pf after mercurial treatment (AQP1 [1]; CHIP28 proteoliposomes, 1 mM HgCl2, 3 minutes at 37° C.) [cm/s] | time to complete inhibition of Pf (AQP1 [1]; CHIP28 proteoliposomes, 1 mM, 37° C.) [min] | inhibition of the increase in Pf mediated by AQP1 (AQP1 [2]; 1 mM HgCl2, 5 min)
OCCS [β-mercaptoethanol] | completely reversed | restored |  |  | 
[Cl][Hg][Cl] [HgCl2] |  |  | 0.007±0.003 | ≤ 5 | blocked

From patent US5741671A, “Isolation cloning and expression of transmembrane water channel aquaporin 1(AQP1)” (The Johns Hopkins University, priority 1995, dated 1998)
